Results taken from publication PMC10600239, “Selective MCL-1 inhibitor ABBV-467 is efficacious in tumor models but is associated with cardiac troponin increases in patients” (Communications Medicine, 2023).
Where “and” joins values, the source holds several entries; their conditions need not be identical. Equal values may be shown once.

Test system: AMO-1 xenografts
Experiment: AMO-1 xenograft efficacy (tumor volume, body weight); as to Mortality Observation Day 34: key: EUTV: Euthanized: tumor volume; as to Mortality Observation Day 36: key: EUTV: Euthanized: tumor volume; as to Mortality Observation Day 68, individual animal: key: EUTV: Euthanized: tumor volume
Format: in vivo, mouse
Method: All animal studies were conducted in accordance with the guidelines approved by the Institutional Animal Care and Use Committees of AbbVie. The research protocol was approved by In Vivo Pharmacology at AbbVie prior to study initiation but was not publicly registered or disclosed. Female C.B-17 SCID-beige mice (AMO-1, OPM-2, NCI-H929, and OCI-AML2 xenografts) and female NSG mice (MV4-11-Red.Fluc systemic) were purchased from Charles River Laboratories (Wilmington, MA). Animals were housed in a light cycle-controlled room with HEPA filtration at 22 °C. Animals had nesting and climbing cage topper as the primary environmental enrichment. Animals were inoculated subcutaneously in the right flank with 5 × 10^6 (AMO-1, OPM-2, NCI-H929, and OCI-AML2) or intravenous (IV) with 5 × 10^6 (MV4-11-Red.Fluc). The inoculation volume (0.2 mL) comprised a 50:50 mixture of cells in growth media and Matrigel (BD Biosciences) for subcutaneous injections and 100% phosphate-buffered saline for IV administration. All cell lines used in this publication were authenticated using IDEXX for STR profiling as well as their IMPACT and human IMPACT panels for pathogen screening. Electronic calipers were used to measure the length and width of each tumor 2 to 3 times per week. Tumor volume was estimated by applying the following equation: volume = length × width^2/2. All groups remained blinded during measurements and dosing; only veterinary staff were aware of group identity. When tumors reached approximately 200 mm^3, mice were randomized by match and distributed into treatment and control groups. All xenograft trials were conducted using 5 to 10 mice per group, and all mice were ear tagged and monitored individually throughout the studies. […] Tumor burden in the systemic MV4-11-Red.Fluc experiment was measured using an IVIS® spectrum from PerkinElmer by taking the total photon flux of the entire dorsal side of an individual mouse. […] A background control mouse that was tumor naive but received D-Luciferin was placed in the upper left corner of each image. The total flux from this animal was subtracted from the total flux of each animal present in the image.
For in vivo studies, maximal tumor growth inhibition (TGI) was calculated as the greatest treatment response using the following equation: Maximal TGI = (1 − mean tumor volume of the treated group/mean tumor volume of the vehicle control group) × 100. The tumor growth delay (TGD) percentage was determined as the percentage increase of the median time period for the treatment group to reach an arbitrary tumor volume of 1000 mm^3 relative to the vehicle control group. […] A power analysis was conducted using historical data to determine the number of animals required to yield significance of 0.05 at a 30% difference. […] Data from experiments in vivo were analyzed using the student’s t-test for TGI values and the Mann–Whitney U test for TGD using Excel and GraphPad Prism. Fisher’s exact test was used to probe significance of differences in response frequency.

[1] = 25 mg/kg Q7Dx2 IV, Day 53, SCID-beige female mice
[2] = 25 mg/kg Q7Dx2 IV, Day 60, SCID-beige female mice
[3] = 25 mg/kg Q7Dx2 IV, SCID-beige female mice, Day 21
[4] = 25 mg/kg Q7Dx2 IV, SCID-beige female mice, Day 24
[5] = 25 mg/kg Q7Dx2 IV, SCID-beige female mice, Day 26
[6] = 25 mg/kg Q7Dx2 IV, SCID-beige female mice, Day 28
[7] = 25 mg/kg Q7Dx2 IV, SCID-beige female mice, Day 34, surviving animals
[8] = 25 mg/kg Q7Dx2 IV, SCID-beige female mice, Day 43
[9] = 25 mg/kg Q7Dx2 IV, SCID-beige female mice, Day 50
[10] = 25 mg/kg Q7Dx2 IV, SCID-beige female mice, Day 55, remaining animals
[11] = 25 mg/kg Q7Dx2 IV, SCID-beige female mice, Day 62
[12] = 25 mg/kg Q7Dx2 IV, SCID-beige female mice, Day 64
[13] = 25 mg/kg Q7Dx2 IV, SCID-beige female mice, Day 68
[14] = 25 mg/kg Q7Dx2 IV, SCID-beige female mice, Day 68, surviving animals
[15] = 25 mg/kg Q7Dx2 IV, SCID-beige mice, Day 13 (measure date 10/25/2017, dosing begin 10/26/2017)

Cc1c(Cl)c2c(Cl)c(C)c1-c1c(-c3ccc(F)cc3)sc3ncnc(c13)O[C@@H](C(=O)O)Cc1cc(ccc1OCc1ccnc(-c3ccc(OC[C@H]4COCCO4)cc3)n1)OC[C@@H](CN1CCN(C)CC1)O2 [Compound A-1747745.0]
Xenograft AMO-1 (DSMZ) (mm³) Day 34 Mean (6.25 mg/kg QDx1 IV, Day 34, group mean): 1592.98 mm³ | Xenograft AMO-1 (DSMZ) (mm³) Day 34 Median (6.25 mg/kg QDx1 IV, Day 34, group median): 1465.20 mm³ | Mortality Observation Day 34 (6.25 mg/kg QDx1 IV, Day 34, per animal): EUTV | Xenograft AMO-1 (DSMZ) (mm³) Day 36 (individual animals) (6.25 mg/kg QDx1 IV, Day 36, SCID-beige female mice, tumor volume per animal (remaining animals)): 1617 mm³ and 1642 mm³ and 1750 mm³ and 2010 mm³ | Xenograft AMO-1 (DSMZ) (mm³) Day 36, Mean (6.25 mg/kg QDx1 IV, Day 36, group mean of remaining animals): 1754.60 mm³ | Xenograft AMO-1 (DSMZ) (mm³) Day 36, Median (6.25 mg/kg QDx1 IV, Day 36, group median of remaining animals): 1695.89 mm³ | Mortality Observation Day 36 (6.25 mg/kg QDx1 IV, Day 36, per animal): EUTV | Mortality Observation Day 19 (25 mg/kg Q7Dx2 IV, AMO-1 xenograft, SCID-beige female mice, individual animals): MORB | % T/C (mean) (25 mg/kg Q7Dx2 IV, Day 13): 102.38% | % T/C (median) (25 mg/kg Q7Dx2 IV, Day 13): 100.76% | % T/C (mean) (25 mg/kg Q7Dx2 IV, Day 19): 6.47% | % T/C (median) (25 mg/kg Q7Dx2 IV, Day 19): 6.98% | % T/C (mean) (25 mg/kg Q7Dx2 IV, Day 21): 4.61% | % T/C (median) (25 mg/kg Q7Dx2 IV, Day 21): 4.91% | % T/C (mean) (25 mg/kg Q7Dx2 IV, Day 24): 1.88% | % T/C (median) (25 mg/kg Q7Dx2 IV, Day 24): 1.98% | % T/C (mean) (25 mg/kg Q7Dx2 IV, Day 26): 1.29% | % T/C (median) (25 mg/kg Q7Dx2 IV, Day 26): 1.46% | % T/C (mean) (25 mg/kg Q7Dx2 IV, Day 28): 0.52% | % T/C (median) (25 mg/kg Q7Dx2 IV, Day 28): 0.52% | Xenograft AMO-1 (DSMZ) (mm³) Day 53 (individual animals) [1]: 15 mm³ | Xenograft AMO-1 (DSMZ) (mm³) Day 53 Mean [1]: 15.19 mm³ | Xenograft AMO-1 (DSMZ) (mm³) Day 53 Median [1]: 15.19 mm³ | Xenograft AMO-1 (DSMZ) (mm³) Day 60 (individual animals) [2]: 155 mm³ and 71 mm³ | Xenograft AMO-1 (DSMZ) (mm³) Day 60, Mean [2]: 112.89 mm³ | Xenograft AMO-1 (DSMZ) (mm³) Day 60, Median [2]: 112.89 mm³ | Xenograft AMO-1 (DSMZ) Day 19 Mean (25 mg/kg Q7Dx2 IV, SCID-beige female mice, Day 19, group mean tumor volume): 25.56 mm³ | Xenograft AMO-1 (DSMZ) Day 19 Median (25 mg/kg Q7Dx2 IV, SCID-beige female mice, Day 19, group median tumor volume): 25.56 mm³ | Xenograft AMO-1 (DSMZ) (mm³) Day 19, individual animals (25 mg/kg Q7Dx2 IV, SCID-beige female mice, Day 19, individual tumor volumes): 18 mm³ and 33 mm³ and MORB | Mortality Observation Day 21, individual animals [3]: STOX (2×) and MORB (2×) | Xenograft AMO-1 (DSMZ) Day 21, Mean [3]: 29.76 mm³ | Xenograft AMO-1 (DSMZ) Day 21, Median [3]: 29.76 mm³ | Xenograft AMO-1 (DSMZ) tumor volume Day 21, individual animals [3]: 19 mm³ and 40 mm³ | Xenograft AMO-1 (DSMZ) (mm³) Day 24, individual animals [4]: 17 mm³ and 19 mm³ | Xenograft AMO-1 (DSMZ) tumor volume Day 24, Mean [4]: 17.90 mm³ | Xenograft AMO-1 (DSMZ) tumor volume Day 24, Median [4]: 17.90 mm³ | Xenograft AMO-1 (DSMZ) tumor volume Day 26, Mean [5]: 17.97 mm³ | Xenograft AMO-1 (DSMZ) tumor volume Day 26, Median [5]: 17.97 mm³ | Xenograft AMO-1 (DSMZ) tumor volume Day 26, individual animals [5]: 18 mm³ | Xenograft AMO-1 (DSMZ) (mm³) Day 28, individual animals [6]: 11 mm³ | Xenograft AMO-1 (DSMZ) Day 28 Mean [6]: 11.33 mm³ | Xenograft AMO-1 (DSMZ) Day 28 Median [6]: 11.33 mm³ | Xenograft AMO-1 (DSMZ) (mm³) Day 34, individual animal tumor volume (25 mg/kg Q7Dx2 IV, SCID-beige female mice, Day 34): 21 mm³ and 19 mm³ | Xenograft AMO-1 (DSMZ) (mm³) Day 34 Mean [7]: 20.16 mm³ | Xenograft AMO-1 (DSMZ) (mm³) Day 34 Median [7]: 20.16 mm³ | Xenograft AMO-1 (DSMZ) (mm³) Day 43, Mean [8]: 15.04 mm³ | Xenograft AMO-1 (DSMZ) (mm³) Day 43, Median [8]: 15.04 mm³ | Xenograft AMO-1 (DSMZ) (mm³) Day 43, individual animal tumor volume [8]: 15 mm³ | Xenograft AMO-1 (DSMZ) tumor volume Day 50, Mean [9]: 15.94 mm³ | Xenograft AMO-1 (DSMZ) tumor volume Day 50, Median [9]: 15.94 mm³ | Xenograft AMO-1 (DSMZ) tumor volume Day 50, individual animals [9]: 15 mm³ and 17 mm³ | Xenograft AMO-1 (DSMZ) tumor volume Day 55, individual animals (25 mg/kg Q7Dx2 IV, SCID-beige female mice, Day 55): 13 mm³ and 9 mm³ | Xenograft AMO-1 (DSMZ) tumor volume Day 55, Mean [10]: 10.76 mm³ | Xenograft AMO-1 (DSMZ) tumor volume Day 55, Median [10]: 10.76 mm³ | Xenograft AMO-1 (DSMZ) (mm³) Day 62 (individual animals) [11]: 198 mm³ and 12 mm³ | Xenograft AMO-1 (DSMZ) (mm³) Day 62, Mean [11]: 104.96 mm³ | Xenograft AMO-1 (DSMZ) (mm³) Day 62, Median [11]: 104.96 mm³ | Xenograft AMO-1 (DSMZ) (mm³) Day 64 (individual animals) [12]: 249 mm³ and 21 mm³ | Xenograft AMO-1 (DSMZ) (mm³) Day 64, Mean [12]: 134.75 mm³ | Xenograft AMO-1 (DSMZ) (mm³) Day 64, Median [12]: 134.75 mm³ | Mortality Observation Day 68, individual animal [13]: EUTV | Xenograft AMO-1 (DSMZ) (mm³) Day 68, individual animal tumor volume [13]: 1794 mm³ and 24 mm³ | Xenograft AMO-1 (DSMZ) (mm³) Day 68, Mean [14]: 908.91 mm³ | Xenograft AMO-1 (DSMZ) (mm³) Day 68, Median [14]: 908.91 mm³ | Xenograft AMO-1 (DSMZ) tumor volume Day 13, Mean [15]: 225.47 mm³ | Xenograft AMO-1 (DSMZ) tumor volume Day 13, Median [15]: 225.47 mm³ | Xenograft AMO-1 (DSMZ) tumor volume Day 13, individual animals [15]: 233 mm³ and 218 mm³ | Xenograft AMO-1 (DSMZ) (mm³) Day 40, Mean (25 mg/kg Q7Dx2 IV, SCID-beige mice, Day 40, group mean of remaining animals): 7.70 mm³ | Xenograft AMO-1 (DSMZ) (mm³) Day 40, Median (25 mg/kg Q7Dx2 IV, SCID-beige mice, Day 40, group median of remaining animals): 7.70 mm³ | Xenograft AMO-1 (DSMZ) (mm³) Day 40, individual animal (25 mg/kg Q7Dx2 IV, SCID-beige mice, Day 40, tumor volume of single animals): 8 mm³ | Xenograft AMO-1 (DSMZ) Day 57, Mean (25 mg/kg Q7Dx2 IV, SCID-beige mice, Day 57, group mean of remaining animals): 13.23 mm³ | Xenograft AMO-1 (DSMZ) Day 57, Median (25 mg/kg Q7Dx2 IV, SCID-beige mice, Day 57, group median of remaining animals): 13.23 mm³ | Xenograft AMO-1 (DSMZ) (mm³) Day 36, Mean (25 mg/kg Q7Dx2 IV, group mean of remaining animals, SCID-beige mice, Day 36): 10.51 mm³ | Xenograft AMO-1 (DSMZ) (mm³) Day 32 Mean (25 mg/kg Q7Dx2 IV, group mean tumor volume, Day 32): 48.75 mm³ | Xenograft AMO-1 (DSMZ) (mm³) Day 36, Median (25 mg/kg Q7Dx2 IV, group median of remaining animals, SCID-beige mice, Day 36): 10.51 mm³ | Xenograft AMO-1 (DSMZ) (mm³) Day 32 Median (25 mg/kg Q7Dx2 IV, group median tumor volume, Day 32): 48.75 mm³ | Xenograft AMO-1 (DSMZ) (mm³) Day 32 (25 mg/kg Q7Dx2 IV, individual animal tumor volume, Day 32): 94 mm³ and 4 mm³ | Xenograft AMO-1 (DSMZ) (mm³) Day 36 (25 mg/kg Q7Dx2 IV, individual animal tumor volume, SCID-beige mice, Day 36): 11 mm³
